Source: article PMC10307885, “A Phase 1/2 trial of SRA737 (a Chk1 inhibitor) administered orally in patients with advanced cancer” (British Journal of Cancer, 2023)

Test system: patients with advanced solid tumours
Assay: Phase 1/2 dose-escalation/expansion study: safety, TEAEs (NCI CTCAE v4.03), DLT, MTD, RP2D
Assay type: in vivo
Source text: The objectives of this first-in-human, Phase 1/2, open-label, dose-escalation study of SRA737 as a single agent were to establish the safety profile, define the maximum tolerated dose (MTD) and the recommended Phase 2 dose (RP2D) and schedule, and to evaluate preliminary efficacy in prospectively selected genetically defined patients enrolled in indication-specific expansion cohorts. Secondary objectives included defining the pharmacokinetic (PK) profile of SRA737.
The study used an accelerated titration design in dose escalation beginning with single subject dose-level cohorts. Doubling of the SRA737 dose was permitted in the subsequent cohort if a dose level was determined to be safe by the cohort review committee consisting of the lead investigator, study investigators representing the site(s) currently enrolling patients, and representatives of the study sponsor. In the event of any SRA737-related adverse event Grade 2 or greater toxicity during Cycle 1, the cohort was to be expanded to 3 to 6 subjects. Thereafter the study followed a rolling 6 design wherein once the first subject completed the 7-day observation period following the first dose of SRA737, subsequent subjects in that cohort started treatment. […] Enrolment of expansion cohorts at the highest dose level determined to be safe and tolerable was initiated prior to the completion of dose escalation and determination of MTD or RP2D.
A single dose of SRA737 was given at one visit on Day −7 to Day −4 (prior to the start of Cycle 1) for PK assessments. SRA737 was then administered orally on a continuous daily dosing schedule in 28-day cycles. An accelerated titration design was used with single-patient dose-escalation cohorts starting with 20 mg SRA737 administered once daily (QD) in the first cohort, with dose doubling in subsequent single-patient cohorts. If a patient had SRA737-related Grade 2 toxicity in a dose level cohort during Cycle 1, that cohort was expanded to 3 to 6 patients, and subsequent cohorts followed a rolling six design.
Patients were assessed for DLT from the first SRA737 dose (Day −7 to Day −4) until the end of Cycle 1 (up to 35 days).
Expansion cohorts including up to 20 patients with one of the 6 specified indication-specific tumour types, were treated at SRA737 doses selected by the cohort review committee based on all available safety and PK data; expansion doses were at or below the maximum tolerated dose (MTD) from the dose-escalation phase. Patients could continue treatment until disease progression or discontinuation from study due to unacceptable toxicity, investigator/sponsor decision, or withdrawal of consent.
Safety assessments including adverse events, laboratory parameters, electrocardiograms (ECGs), and echocardiograms were conducted throughout treatment and until 30 days after the last study treatment or initiation of new anticancer treatment.
The Safety Evaluable population included all patients who received at least one dose of SRA737.
The DLT window is defined from the first dose (Day -7 to Day -4) until the end of Cycle 1 (up to 35 days).
A DLT is defined as any highly probably or probably SRA737-related event of: […]

[1] = 1300 mg QD cohort, three patients enrolled
[2] = 49 patients treated at SRA737 doses >800 mg QD
[3] = irrespective of SRA737 dose level, any grade

N#Cc1cnc(Nc2cc(NC[C@H]3CNCCO3)c(C(F)(F)F)cn2)cn1 [SRA737, (R)-5-((4-((morpholin-2-ylmethyl)amino)-5-(trifluoromethyl)pyridin-2-yl)amino)pyr azine-2-carbonitrile]
Dose-limiting toxicity (DLT) (500 mg BID, one patient, four evaluable for DLT): Grade 4 thrombocytopenia
Grade 1–2 TEAEs of diarrhoea (800 mg SRA737 dose level): 68 % of patients
Grade 1–2 TEAEs of nausea (800 mg SRA737 dose level): 78 % of patients
Grade 1–2 TEAEs of vomiting (800 mg SRA737 dose level): 50 % of patients
patients with Grade 3 diarrhoea (GI toxicity above Grade 2) (800 mg dose level): one
Dose-limiting toxicities (DLTs) (1000 mg QD dose-escalation cohort (or any lower-dose cohorts)): No DLTs
patients requiring dose reduction to 600 mg due to GI intolerability (1000 mg QD, 10 evaluable patients): 3 patients
Grade 1–2 TEAEs of diarrhoea (1000 mg SRA737 dose level): 72 % of patients
Grade 1–2 TEAEs of nausea (1000 mg SRA737 dose level): 65 % of patients
Grade 1–2 TEAEs of vomiting (1000 mg SRA737 dose level): 63 % of patients
patients with Grade 3 diarrhoea (GI toxicity above Grade 2) (1000 mg dose level): 1 patient
patients with both Grade 3 nausea and vomiting (1000 mg dose level): single patient
patients with dose-limiting GI intolerability (Grade 1–2 nausea, vomiting, and/or diarrhoea) [1]: 2 patients
patients with dose-limiting Grade 3 neutropenia [1]: 1 patient
discontinued due to SRA737-related TEAEs (16 patients of 107): 15.0%
Adverse events leading to treatment discontinuation (34 patients of 107): 31.8%
Grade 3 or higher TEAE related to SRA737: fatigue [2]: 4%
Grade 3 or higher TEAE related to SRA737: neutropenia [2]: 10%
Grade 3 or higher TEAE related to SRA737: rash/rash maculopapular combined [2]: 6%
Any SRA737-related Grade ≥3 treatment-emergent adverse event (TEAE) (Overall (N = 107)): 33 (30.8) n (%)
Any SRA737-related treatment-emergent adverse event (TEAE), any grade (Overall (N = 107)): 98 (91.6) n (%)
SRA737-related TEAE of Grade 3 or higher: Aspartate aminotransferase increased (Overall (N = 107)): 2 (1.9) n (%)
SRA737-related TEAE of Grade 3 or higher: Diarrhoea (Overall (N = 107)): 2 (1.9) n (%)
SRA737-related TEAE of Grade 3 or higher: Dyspnoea (Overall (N = 107)): 2 (1.9) n (%)
SRA737-related TEAE of Grade 3 or higher: Fatigue (Overall (N = 107)): 2 (1.9) n (%)
SRA737-related TEAE of Grade 3 or higher: Lymphocyte count decreased (Overall (N = 107)): 3 (2.8) n (%)
SRA737-related TEAE of Grade 3 or higher: Neutropenia (Overall (N = 107)): 9 (8.4) n (%)
SRA737-related TEAE of Grade 3 or higher: Rash (Overall (N = 107)): 3 (2.8) n (%)
SRA737-related TEAE of Grade 3 or higher: Rash maculopapular (Overall (N = 107)): 3 (2.8) n (%)
SRA737-related TEAE of Grade 3 or higher: Thrombocytopenia (Overall (N = 107)): 3 (2.8) n (%)
SRA737-related TEAE of any grade: Anaemia (Overall (N = 107)): 16 (15.0) n (%)
SRA737-related TEAE of any grade: Decreased Appetite (Overall (N = 107)): 19 (17.8) n (%)
SRA737-related TEAE of any grade: Diarrhoea (Overall (N = 107)): 67 (62.6) n (%)
SRA737-related TEAE of any grade: Fatigue (Overall (N = 107)): 41 (38.3) n (%)
SRA737-related TEAE of any grade: Nausea (Overall (N = 107)): 64 (59.8) n (%)
SRA737-related TEAE of any grade: Neutropenia (Overall (N = 107)): 17 (15.9) n (%)
SRA737-related TEAE of any grade: Vomiting (Overall (N = 107)): 49 (45.8) n (%)
Any SRA737-related Grade ≥3 treatment-emergent adverse event (TEAE) (SRA737 dose > 800 mg (N = 49)): 19 (38.8) n (%)
Any SRA737-related treatment-emergent adverse event (TEAE), any grade (SRA737 dose > 800 mg (N = 49)): 47 (95.9) n (%)
SRA737-related TEAE of Grade 3 or higher: Aspartate aminotransferase increased (SRA737 dose > 800 mg (N = 49)): 0 n (%)
SRA737-related TEAE of Grade 3 or higher: Diarrhoea (SRA737 dose > 800 mg (N = 49)): 1 (2.0) n (%)
SRA737-related TEAE of Grade 3 or higher: Dyspnoea (SRA737 dose > 800 mg (N = 49)): 0 n (%)
SRA737-related TEAE of Grade 3 or higher: Fatigue (SRA737 dose > 800 mg (N = 49)): 2 (4.1) n (%)
SRA737-related TEAE of Grade 3 or higher: Lymphocyte count decreased (SRA737 dose > 800 mg (N = 49)): 0 n (%)
SRA737-related TEAE of Grade 3 or higher: Neutropenia (SRA737 dose > 800 mg (N = 49)): 5 (10.2) n (%)
SRA737-related TEAE of Grade 3 or higher: Rash (SRA737 dose > 800 mg (N = 49)): 1 (2.0) n (%)
SRA737-related TEAE of Grade 3 or higher: Rash maculopapular (SRA737 dose > 800 mg (N = 49)): 2 (4.1) n (%)
SRA737-related TEAE of Grade 3 or higher: Thrombocytopenia (SRA737 dose > 800 mg (N = 49)): 1 (2.0) n (%)
SRA737-related TEAE of any grade: Anaemia (SRA737 dose > 800 mg (N = 49)): 11 (22.4) n (%)
SRA737-related TEAE of any grade: Decreased Appetite (SRA737 dose > 800 mg (N = 49)): 7 (14.3) n (%)
SRA737-related TEAE of any grade: Diarrhoea (SRA737 dose > 800 mg (N = 49)): 34 (69.4) n (%)
SRA737-related TEAE of any grade: Fatigue (SRA737 dose > 800 mg (N = 49)): 27 (55.1) n (%)
SRA737-related TEAE of any grade: Nausea (SRA737 dose > 800 mg (N = 49)): 32 (65.3) n (%)
SRA737-related TEAE of any grade: Neutropenia (SRA737 dose > 800 mg (N = 49)): 7 (14.3) n (%)
SRA737-related TEAE of any grade: Vomiting (SRA737 dose > 800 mg (N = 49)): 28 (57.1) n (%)
Any SRA737-related Grade ≥3 treatment-emergent adverse event (TEAE) (SRA737 dose ≤ 800 mg (N = 58)): 14 (24.1) n (%)
Any SRA737-related treatment-emergent adverse event (TEAE), any grade (SRA737 dose ≤ 800 mg (N = 58)): 51 (87.9) n (%)
SRA737-related TEAE of Grade 3 or higher: Aspartate aminotransferase increased (SRA737 dose ≤ 800 mg (N = 58)): 2 (3.4) n (%)
SRA737-related TEAE of Grade 3 or higher: Diarrhoea (SRA737 dose ≤ 800 mg (N = 58)): 1 (1.7) n (%)
SRA737-related TEAE of Grade 3 or higher: Dyspnoea (SRA737 dose ≤ 800 mg (N = 58)): 2 (3.4) n (%)
SRA737-related TEAE of Grade 3 or higher: Fatigue (SRA737 dose ≤ 800 mg (N = 58)): 0 n (%)
SRA737-related TEAE of Grade 3 or higher: Lymphocyte count decreased (SRA737 dose ≤ 800 mg (N = 58)): 3 (5.2) n (%)
SRA737-related TEAE of Grade 3 or higher: Neutropenia (SRA737 dose ≤ 800 mg (N = 58)): 4 (6.9) n (%)
SRA737-related TEAE of Grade 3 or higher: Rash (SRA737 dose ≤ 800 mg (N = 58)): 2 (3.4) n (%)
SRA737-related TEAE of Grade 3 or higher: Rash maculopapular (SRA737 dose ≤ 800 mg (N = 58)): 1 (1.7) n (%)
SRA737-related TEAE of Grade 3 or higher: Thrombocytopenia (SRA737 dose ≤ 800 mg (N = 58)): 2 (3.4) n (%)
SRA737-related TEAE of any grade: Anaemia (SRA737 dose ≤ 800 mg (N = 58)): 5 (8.6) n (%)
SRA737-related TEAE of any grade: Decreased Appetite (SRA737 dose ≤ 800 mg (N = 58)): 12 (20.7) n (%)
SRA737-related TEAE of any grade: Diarrhoea (SRA737 dose ≤ 800 mg (N = 58)): 33 (56.9) n (%)
SRA737-related TEAE of any grade: Fatigue (SRA737 dose ≤ 800 mg (N = 58)): 14 (24.1) n (%)
SRA737-related TEAE of any grade: Nausea (SRA737 dose ≤ 800 mg (N = 58)): 32 (55.2) n (%)
SRA737-related TEAE of any grade: Neutropenia (SRA737 dose ≤ 800 mg (N = 58)): 10 (17.2) n (%)
SRA737-related TEAE of any grade: Vomiting (SRA737 dose ≤ 800 mg (N = 58)): 21 (36.2) n (%)
Grade 3 or higher neutropenia rate (current study, overall): 8%
Dose-limiting toxicity, events included (daily doses of 1000 and 1300 mg QD): gastrointestinal events, neutropenia and thrombocytopenia
patients who tolerated the dose but required anti-emetic medication and/or night-time dosing (human, in vivo): 7 patients
Fatal adverse events attributed to SRA737 (in vivo): none
Fatal adverse events reported (in vivo): ten
TEAE attributed to SRA737: anaemia [3]: 15%
TEAE attributed to SRA737: decreased appetite [3]: 18%
TEAE attributed to SRA737: diarrhoea [3]: 63%
TEAE attributed to SRA737: fatigue [3]: 38%
TEAE attributed to SRA737: nausea [3]: 60%
TEAE attributed to SRA737: neutropenia [3]: 16%
TEAE attributed to SRA737: vomiting [3]: 46%
recommended Phase 2 dose (RP2D) (oral monotherapy): 800 mg QD
maximum tolerated dose (MTD) (oral monotherapy, continuous daily dosing, 28-day cycles): 1000 mg QD
GI events (diarrhoea, nausea, vomiting) reported at Grade 3 or higher severity (patients treated at 800 mg QD or higher): less than 5 % of patients
